# Like-named read-outs stand apart in the source and are kept apart here.
# Columns and labels:
# [1] = test system: Muscarinic, M5 (h); test: NovaScreen competition binding; design: species or system human; details: 1 µM
# [2] = test system: WT, α6L9′S, α6KO, α4KO and β2KO mice; test: Conditioned place preference; type: in vivo, mouse; details: for ED50: Mus musculus, read-out: CPP ED50
# Excerpt: Male, 3–6-month-old mice were used in our CPP assays. Various genotypes were used: WT, α6L9′S, α4L9′S (hypersensitive […]), α6KO, α4KO, and β2KO. All WT mice were C57BL/6J and all other genotypes have been backcrossed with C57BL/6J mice for ≥10 generations. The CPP apparatus (Med Associates, East Fairfield, VT, United States) was a rectangular cage with interior dimensions of 46.5 × 12.7 × 12.7(H) cm, divided into three sub-compartments: white and black (each 16.8 cm L) with steel mesh and rod floors, respectively, and a central gray compartment (7.2 cm L) with a solid plastic floor. […] Drop-down doors separated the chambers.
# Mice were housed singly and habituated to the experimental room for 3–7 days before initial testing and remained in the experimental room for the duration of the experiment. We chose a biased method for CPP. On day 1 (pre-training) mice were placed in the center chamber and allowed to explore the apparatus freely for 20 min. Time spent in each chamber was recorded, and drug pairing was determined by the least preferred chamber. Mice with a severe initial bias for one chamber (defined as ≥65% time spent in one conditioning chamber) were excluded. On days 2, 4, 6, and 8, mice were injected with the drug of interest, and were confined to the drug-paired chamber for 20 min. On days 3, 5, 7, and 9, mice were injected with saline and confined to the opposite chamber. On day 10 (post-training), mice were again given free access to the apparatus for 20 min, and the time spent in each chamber was recorded. CPP was determined by measuring the change in the difference between the time spent in the drug-paired chamber and the saline-paired chamber from pre- to post-training.
# [3] = test system: T1, Thromboxane A2 (h) [SQ 29,548]; test: NovaScreen competition binding; design: species or system human; details: 1 µM
# T1 construct: PerkinElmer – Caliper Life Sciences (NovaScreen service)
# [4] = In vitro metabolism in microsomes; type: in vitro ADME; details: rat microsomes
# [5] = test system: Glutamate, Kainate Site (Ionotropic); test: NovaScreen competition binding; details: 1 µM
# [6] = target: T2, Low-sensitivity α4(3)β2(2) nAChRs (Mus musculus, UniProt O70174+Q9ERK7); test: 86Rb+ efflux from thalamic and cortical synaptosomes, DhβE-insensitive component; type: biochemical
# T2 construct: from tissue; host or cells: WT mouse thalamic and cortical synaptosomes
# Experimental: (§1) Regions of interest were dissected from fresh mouse brains and homogenized in ice-cold isotonic sucrose (0.32 M), buffered with HEPES (5 mM, pH 7.5). The suspension was centrifuged at 12,000 × g for 20 min.
# [7] = test system: Norepinephrine Transporter; test: NovaScreen competition binding; details: 1 µM
# [8] = test system: Glycine, Strychnine-sensitive; test: NovaScreen competition binding; details: 1 µM
# [9] = test system: T3, Histamine, H1; test: NovaScreen competition binding; details: 1 µM
# T3 construct: PerkinElmer – Caliper Life Sciences (NovaScreen)
# [10] = test system: Neurokinin, NK1; test: NovaScreen competition binding; details: 1 µM
# [11] = test system: Serotonin, 5HT4; test: NovaScreen competition binding; details: 1 µM
# [12] = test system: Adrenergic, Beta 2 (h); test: NovaScreen competition binding; design: species or system human; details: 1 µM
# [13] = test system: Sodium, Site 2; test: NovaScreen competition binding; details: 1 µM
# [14] = test system: T4, Endothelin, ET-A (h); test: NovaScreen competition binding; design: species or system human; details: 1 µM
# T4 construct: PerkinElmer – Caliper Life Sciences (NovaScreen service)
# [15] = test system: GABA, Chloride, TBOB Site; test: NovaScreen competition binding; details: 1 µM
# [16] = target: α6β2* nAChRs (Mus musculus, UniProt Q9ERK7+Q9R0W9); test: biochemical; type: biochemical; details: for EC50: read-out: Neurotransmitter release EC50 (converted); for Emax: relative to nicotine
# Experimental: as §1, with “min. The pellet was re-suspended in the appropriate uptake buffer ([Grady et al., 2001]; [Salminen et al., 2004]; [Marks et al., 2006]) and used immediately.” for “min.”
# Superfusion was carried out at 22°C using a buffer containing: NaCl, 128 mM; KCl, 2.4 mM; CaCl2, 3.2 mM; MgSO4, 1.2 mM; KH2PO4, 1.2 mM; HEPES, 25 mM; glucose, 10 mM; ascorbic acid, 1 mM; pargyline, 0.01 mM; 0.1% BSA; nomifensine, 1 μM (to prevent the re-uptake of dopamine); atropine, 1 μM (to prevent muscarinic receptor activation); pH 7.5. Superfusion proceeded at 0.7 mL/min for 10 min before stimulation with agonist for 20 s. Selected aliquots were perfused with α-CtxMII (50 nM) for 3 min immediately before stimulation. This concentration of α-CtxMII was sufficient to inhibit α6β2^∗-nAChRs in the mouse striatum ([Salminen et al., 2004], [2007]). Fractions (∼0.1 mL) were collected into 96-well plates at 10 s intervals for 4 min (starting ∼1 min before stimulation). After adding 0.15 mL of Optiphase SuperMix scintillation cocktail, radioactivity was measured using a 1450 MicroBeta TriLux counter (Perkin Elmer Life Sciences).
# Chain of α6β2* nAChRs (Q9R0W9 31-494): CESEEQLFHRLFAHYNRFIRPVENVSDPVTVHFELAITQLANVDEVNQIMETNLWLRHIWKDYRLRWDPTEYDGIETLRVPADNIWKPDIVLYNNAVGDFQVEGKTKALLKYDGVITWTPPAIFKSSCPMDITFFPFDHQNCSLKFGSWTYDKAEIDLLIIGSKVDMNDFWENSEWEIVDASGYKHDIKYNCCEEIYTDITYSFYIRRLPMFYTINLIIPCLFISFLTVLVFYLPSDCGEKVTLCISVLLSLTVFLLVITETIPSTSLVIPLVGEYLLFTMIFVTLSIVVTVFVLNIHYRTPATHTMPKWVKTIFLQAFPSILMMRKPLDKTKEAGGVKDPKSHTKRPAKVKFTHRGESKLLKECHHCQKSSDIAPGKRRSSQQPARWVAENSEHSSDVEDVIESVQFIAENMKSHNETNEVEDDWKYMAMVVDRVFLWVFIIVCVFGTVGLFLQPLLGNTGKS
# Chain of α6β2* nAChRs (Q9ERK7 26-501): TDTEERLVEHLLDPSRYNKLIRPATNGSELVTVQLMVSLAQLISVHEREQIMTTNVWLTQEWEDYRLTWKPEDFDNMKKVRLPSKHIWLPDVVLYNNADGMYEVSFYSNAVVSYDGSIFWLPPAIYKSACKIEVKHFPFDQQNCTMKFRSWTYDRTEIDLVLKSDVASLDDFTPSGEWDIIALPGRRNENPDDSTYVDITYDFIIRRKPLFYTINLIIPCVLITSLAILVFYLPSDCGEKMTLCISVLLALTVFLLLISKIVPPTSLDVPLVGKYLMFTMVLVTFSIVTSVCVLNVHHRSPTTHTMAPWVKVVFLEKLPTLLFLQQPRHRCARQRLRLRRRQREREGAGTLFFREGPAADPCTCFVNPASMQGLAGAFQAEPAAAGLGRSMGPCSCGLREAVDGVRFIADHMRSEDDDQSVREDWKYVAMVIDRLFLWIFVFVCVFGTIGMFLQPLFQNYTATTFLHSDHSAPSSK
# Chain of α6β2* nAChRs (Q8BMN3 31-464 partner): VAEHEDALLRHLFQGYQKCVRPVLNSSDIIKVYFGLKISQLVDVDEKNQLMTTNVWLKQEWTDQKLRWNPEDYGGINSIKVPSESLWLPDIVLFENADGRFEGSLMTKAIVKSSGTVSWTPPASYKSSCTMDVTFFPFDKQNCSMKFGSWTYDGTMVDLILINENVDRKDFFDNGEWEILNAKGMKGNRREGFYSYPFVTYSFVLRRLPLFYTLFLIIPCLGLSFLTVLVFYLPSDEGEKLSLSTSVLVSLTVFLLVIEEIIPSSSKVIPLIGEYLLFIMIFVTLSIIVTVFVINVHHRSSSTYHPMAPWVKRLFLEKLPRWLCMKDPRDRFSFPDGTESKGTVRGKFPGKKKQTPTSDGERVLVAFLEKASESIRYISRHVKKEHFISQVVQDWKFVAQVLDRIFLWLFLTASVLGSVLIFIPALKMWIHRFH
# T2 sequence (O70174 31-629): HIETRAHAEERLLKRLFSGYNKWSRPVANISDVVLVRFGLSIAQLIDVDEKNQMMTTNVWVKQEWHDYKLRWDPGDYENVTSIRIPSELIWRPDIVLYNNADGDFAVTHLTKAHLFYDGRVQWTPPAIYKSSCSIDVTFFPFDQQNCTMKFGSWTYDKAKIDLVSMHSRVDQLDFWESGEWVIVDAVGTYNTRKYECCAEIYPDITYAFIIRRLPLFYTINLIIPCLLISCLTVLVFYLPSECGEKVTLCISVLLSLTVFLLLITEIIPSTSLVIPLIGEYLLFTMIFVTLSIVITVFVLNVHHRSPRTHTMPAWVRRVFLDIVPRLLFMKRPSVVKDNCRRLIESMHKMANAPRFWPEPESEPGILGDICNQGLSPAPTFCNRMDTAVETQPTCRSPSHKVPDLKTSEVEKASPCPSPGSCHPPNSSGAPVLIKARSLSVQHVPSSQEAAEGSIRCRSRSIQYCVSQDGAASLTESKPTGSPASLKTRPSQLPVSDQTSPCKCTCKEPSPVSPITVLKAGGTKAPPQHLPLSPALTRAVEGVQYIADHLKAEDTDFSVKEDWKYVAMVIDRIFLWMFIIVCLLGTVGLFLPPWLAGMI
# T2 sequence (Q9ERK7 26-501): as the sequence (Q9ERK7 26-501) above
structure (smiles),measurement,setting,value
"C1=C(/c2cncnc2)CCCNCC/1 [TC299423, (E)-5-(pyrimidin-5-yl)-1,2,3,4,7,8-hexahydroazocine]",Hit,[1],FALSE
same,Inhibition,"[1]; [3H]Scopolamine, N-Methyl",2.24%
same,CPP difference scores in α4KO mice vs WT,[2]; 0.012 mg/kg,no effect
same,CPP difference scores in α6KO and β2KO mice vs WT,[2]; 0.012 mg/kg,dramatically reduced
same,ED50,"[2]; WT mice, Michaelis–Menten fit",4 ± 3 µg/kg
same,ED50,[2]; α6L9′S mice,< 1 µg/kg
same,CPP difference score vs saline-injected control,"[2]; WT mice, 0.012 mg/kg, t-test p = 0.047",marginally significant increase
same,Overall effect on CPP,"[2]; WT mice, 1, 4, 12, 25 μg/kg, one-way ANOVA",no significant overall effect
same,Overall effect on the CPP difference score,"[2]; α6L9′S mice, 1, 4, 12, 25 μg/kg, one-way ANOVA",highly significant overall effect
same,CPP difference score vs saline-injected controls,"[2]; α6L9′S mice, 1 and 25 μg/kg, Tukey HSD p < 0.05",significantly greater than the saline-injected controls
same,Hit,[3],FALSE
same,Inhibition,"[3]; 3H SQ 29,548",3.14%
same,Half-life compared to varenicline,[4],~7 fold
same,half-life,[4],1.32 h
same,microsomal CLint,[4]; read-out: Clearance,18 µL/min/mg
same,Hit,[5],FALSE
same,Inhibition,[5]; [3H]Kainic acid,-6.93%
same,86Rb+ efflux Efficacy,[6]; Cortex,39 ± 4%
same,EC50,[6]; Cortex,26 ± 21 µM
same,86Rb+ efflux Efficacy,[6]; Thalamus,32 ± 10%
same,EC50,[6]; Thalamus,10 ± 10 µM
same,Hit,[7],FALSE
same,Inhibition,[7]; [3H]Nisoxetine,23.72%
same,Hit,[8],FALSE
same,Inhibition,[8]; [3H]Strychnine,-7.63%
same,Hit,[9],FALSE
same,Inhibition,[9]; [3H]Pyrilamine,15.56%
same,Hit,[10],FALSE
same,Inhibition,[10]; [3H]Substance P,2.10%
same,Hit,[11],FALSE
same,Inhibition,[11]; [3H]GR 113808,-16.64%
same,Hit,[12],FALSE
same,Inhibition,[12]; [125]I-Iodo-cyanopindolol,-8.25%
same,Hit,[13],FALSE
same,Inhibition,[13]; [3H]Batrachotoxin A 20-a-Benzo,6.91%
same,Hit,[14],FALSE
same,Inhibition,[14]; [125I] Endothelin-1,8.93%
same,Hit,[15],FALSE
same,Inhibition,[15]; [3H]TBOB,6.83%
same,EC50,[16]; WT striatal synaptosomes,0.03 ± 6e-06 µM
same,"Maximal response, α-CtxMII-sensitive [3H]-dopamine release",[16]; calculated from Michaelis–Menten curve fit,0.93 ± 0.08 units
same,Emax,"[16]; read-out: Neurotransmitter release % Efficacy, WT striatal synaptosomes",50 ± 20%
same,Emax,"[16]; read-out: Neurotransmitter release % Efficacy, α5KO striatal synaptosomes",54 ± 14%
same,EC50,[16]; α5KO striatal synaptosomes,0.05 µM

# Source: publication PMC5626944 (Frontiers in Pharmacology, 2017)
